Measurements from patent US11642359B2, “Nutritional composition for improving intestinal barrier integrity, preparation of the composition and method of treatment” (priority 2018, dated 2023).

Tested on: alpha-1 antitrypsin (A1AT) in the gut wash
Assay: A1AT in the gut wash by ELISA as marker of intestinal permeability / barrier disruption in rotavirus-infected suckling rats
Assay type: in vivo, rat
Settings: compared to both the RV and REF groups (p<0.05), 3rd day of the diarrheal period (peak of diarrhea)
Description: Newborn rats were distributed into five groups of 24 animals each: the reference (REF) group, rotavirus-infected (RV) group, and 3 rotavirus-infected groups supplemented with: a) a mixture of scGOS and lcFOS (RV+GOS/FOS group); b) 2′-FL (RV+2′-FL group); and c) both scGOS/lcFOS and 2′-FL (RV+GOS/FOS+2′-FL group).
Suckling rats were orally administered once daily with the same normalized volume/body weight of all products (4.5 μL/g/day), from the second to the sixteenth day of life, corresponding to the strict lactation period. The RV+GOS/FOS group was supplemented with 0.8 g of scGOS/lcFOS/100 g of body weight. The RV+2′-FL group was supplemented with 0.2 g of 2′-FL/100 g of body weight. The RV+GOS/FOS+2′-FL group received both products at the same doses as when given separately and maintaining the volume of administration (4.5 μL/g/day). The REF and RV groups were administered with a matched volume of water. […]
The quantification of A1AT in the gut wash, as a marker of intestinal permeability, was performed with the rat SERPINA1/Alpha 1 Antitrypsin ELISA kit (LifeSpan Biosciences Inc., Seattle, Wash., USA) following the manufacturer's instructions. […]

2′-fucosyllactose [2′-FL]
concentration of A1AT in the gut wash: reduced | concentration of A1AT in the gut wash (listed as 2′-fucosyllactose): significant reduction
